From US8470829B2 (priority 2004, dated 2013)
Like-named read-outs stand apart in the source and are kept apart here.

Assays:
[1] = target: T1, human androgen receptor (Homo sapiens, UniProt P10275); assay: Measurement of agonist effect on androgen receptor (reporter gene assay, 11A11B2 cells); format: cell-based; settings: compound concentration showing a transcription activity of 5% (0.1 nmol/L DHT = 100%, assay medium alone = 0%), 48 hours
T1 construct: expressed in transfected cells
T1 sequence (P10275 1-920): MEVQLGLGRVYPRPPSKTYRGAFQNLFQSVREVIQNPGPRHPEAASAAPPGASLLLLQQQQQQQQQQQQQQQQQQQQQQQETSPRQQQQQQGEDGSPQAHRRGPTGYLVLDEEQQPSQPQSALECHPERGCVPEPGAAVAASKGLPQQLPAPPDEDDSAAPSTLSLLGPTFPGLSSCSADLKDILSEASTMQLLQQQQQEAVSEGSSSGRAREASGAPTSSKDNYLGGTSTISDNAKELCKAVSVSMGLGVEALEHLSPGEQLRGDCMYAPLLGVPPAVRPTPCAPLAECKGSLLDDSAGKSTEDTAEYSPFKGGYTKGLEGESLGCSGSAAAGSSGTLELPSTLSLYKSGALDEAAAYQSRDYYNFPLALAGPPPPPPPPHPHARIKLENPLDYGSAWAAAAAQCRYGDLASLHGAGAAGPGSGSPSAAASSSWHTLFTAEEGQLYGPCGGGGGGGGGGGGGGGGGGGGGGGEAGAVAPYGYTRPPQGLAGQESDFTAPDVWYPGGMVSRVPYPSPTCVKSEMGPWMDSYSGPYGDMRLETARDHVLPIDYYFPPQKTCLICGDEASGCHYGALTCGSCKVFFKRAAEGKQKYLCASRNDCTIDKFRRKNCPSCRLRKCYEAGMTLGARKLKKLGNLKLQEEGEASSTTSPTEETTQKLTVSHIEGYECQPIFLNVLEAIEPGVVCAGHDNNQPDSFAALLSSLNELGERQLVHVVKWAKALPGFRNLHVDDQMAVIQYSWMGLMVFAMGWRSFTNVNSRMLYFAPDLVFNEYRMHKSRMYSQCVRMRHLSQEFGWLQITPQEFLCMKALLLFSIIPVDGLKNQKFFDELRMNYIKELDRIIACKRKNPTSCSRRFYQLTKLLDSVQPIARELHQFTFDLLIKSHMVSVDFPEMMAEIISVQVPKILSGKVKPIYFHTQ
Description: (§1) HeLa cells (purchased from Dai-Nippon Seiyaku K. K.) were cultured overnight in Dulbecco's Modified Eagle Medium containing no phenol red, but containing 3% charcoal-treated fetal bovine serum (hereafter referred to as DCC-FBS) (this medium is hereafter referred to as phenol-red-free DMEM). An MMTV-Luc-Hyg vector (reporter plasmid with mouse mammary tumor virus long terminal repeat, containing an androgen response element and a hygromycin resistance gene: a vector obtained by substituting a chloramphenicol acetyl transferease gene of a GM-CAT vector (A.T.C.C No. 67282) purchased from the A.T.C.C. with the firefly luciferase gene, and inserting a hygromycin resistance gene as a drug resistant gene), and pSG5-hAR-neo (human androgen receptor expression vector: a vector having an androgen receptor gene under the control of the SV40 promoter, and having a neomycin resistance gene inserted as a drug resistance gene) were transfected into the HeLa cells using an FuGENE™ 6 Transfection Reagent (obtained from Roche).
(§2) The clone cells thus obtained (11A11B2 cells) were maintained and propagated using DMEM containing 400 μg/mL neomycin, 200 μg/mL hygromycin and 10% FBS, and were propagated using phenol-red-free DMEM containing 10% DCC-FBS three to four days prior to the performance of an androgen receptor reporter gene assay.
The 11A11B2 cells were inoculated in a white clear-bottomed 96-well microplate (COSTAR) so that the cell concentration was 1.0×10^4/well, and were cultured overnight using phenol-red-free DMEM containing 3% DCC-FBS (hereafter referred to as the assay medium). Samples of the assay medium containing the compounds of the Examples and compounds of the Comparative Examples were added so that the final concentrations of the compounds of the Examples and compounds of the Comparative Examples were 1, 10, 100, 1,000 and 10,000 nmol/L), and the cells were cultured for 48 hours, after which the transcription activity value was measured. The transcription activity was measured using a Bright-Glo™ Luciferase Assay System (Promega).
The transcription activity rates of the compounds of the Examples were calculated from the transcription activity measured by the abovementioned method, with the transcription activity value obtained at 0.1 nmol/L DHT taken as 100%, and the transcription activity value in the case of the assay medium alone taken as 0%. The compound concentration showing a transcription activity of 5% (EC5 value) was calculated from a linear equation for two points on either side of 5%.

[2] = target: T1, human androgen receptor; assay: Investigation of antagonist effect on androgen receptor (reporter gene assay, 11A11B2 cells, with DHT); format: cell-based
Description: as §1, §2
The 11A11B2 cells were inoculated in a white clear-bottomed 96-well microplate (COSTAR) so that the cell concentration was 1.0×10^4/well, and were cultured overnight. The assay medium containing DHT was added so that the final concentration of DHT was 0.1 nmol/L, and samples of the assay medium containing the compounds of the Examples or compounds of the Comparative Examples were added so that the final concentrations of the compounds of the Examples or compounds of the Comparative Examples were 1, 10, 100, 1,000 and 10,000 nmol/L, respectively. After culturing for 48, hours, the transcription activity values were measured. The transcription activity was measured using a Bright-Glo™ Luciferase Assay System (Promega).
The transcription activity rates of the compounds of the Examples were calculated from the transcription activity measured by the abovementioned method, with the transcription activity value obtained at 0.1 nmol/L DHT taken as 100%, and the transcription activity value in the case of the assay, medium alone taken as 0%.

[3] = with 0.1 nmol/L DHT, transcription activity rate of Test Example 1 subtracted, 11A11B2 cells, 48 hours, read-out: IC50

Structure (SMILES)	EC5 [1] [µM]	IC50 [2] [nM]	IC50 [2, 3] [nM]
CC1(C)C(=O)N(c2ccc(C#N)c(C(F)(F)F)c2)C(=S)N1c1ccc(NC(=O)OCC(O)CO)nc1 (stereo not shown) [Example 70, {5-[3-(4-cyano-3-trifluoromethylphenyl)-5,5-dimethyl-4-oxo-2-thioxoimidazolidin-1-yl]pyridin-2-yl}-carbamic acid 2,3-dihydroxypropyl ester]	>10	500	
CC1(C)C(=O)N(c2ccc(C#N)c(Cl)c2)C(=S)N1c1ccc2sc(NC(=O)OCC(O)CO)nc2c1 (stereo not shown) [Example 65, {5-[3-(3-chloro-4-cyanophenyl)-5,5-dimethyl-4-oxo-2-thioxoimidazolidin-1-yl]benzothiazol-2-yl}carbamic acid 2,3-dihydroxypropyl ester]	>10		200
CC(C)OC(=O)Nc1cc(N2C(=O)N(c3ccc(C#N)c(C(F)(F)F)c3)C(=O)C2(C)C)ccc1Cl [Example 23, 4-[3-(3-isopropoxycarbonylamino-4-chlorophenyl)-4,4-dimethyl-2,5-dioxoimidazolidin-1-yl]-2-trifluoromethylbenzonitrile]	>10		500
COc1cc(N2C(=O)C(C)(C)N(c3ccc(Cl)c(NC(=O)OCCO)c3)C2=S)ccc1C#N [Example 48, {2-chloro-5-[3-(4-cyano-3-methoxyphenyl)-5,5-dimethyl-4-oxo-2-thioxoimidazolidin-1-yl]phenyl}-carbamic acid 2-hydroxyethyl ester]	>10		500
CC1(C)C(=O)N(c2ccc(C#N)c(C(F)(F)F)c2)C(=O)N1c1ccc(Cl)c(NC(=O)OCCCO)c1 [Example 27, {2-chloro-5-[3-(4-cyano-3-trifluoromethylphenyl)-5,5-dimethyl-2,4-dioxoimidazolidin-1-yl]phenyl}-carbamic acid 3-hydroxypropyl ester]	>10		400
CCCNC(=O)N1CCC(N2C(=S)N(c3ccc(C#N)c(C(F)(F)F)c3)C(=O)C2(C)C)CC1 [Example 39, 4-[3-(1-n-propylaminocarbonylpiperidin-4-yl)-4,4-dimethyl-5-oxo-2-thioxoimidazolidin-1-yl]-2-trifluoromethylbenzonitrile]	>10		900
CN(C)CCOC(=O)Nc1ccc(N2C(=S)N(c3ccc(C#N)c(Cl)c3)C(=O)C2(C)C)cn1 [Example 69, {5-[3-(3-chloro-4-cyanophenyl)-5,5-dimethyl-4-oxo-2-thioxoimidazolidin-1-yl]pyridin-2-yl}-carbamic acid 2-dimethylaminoethyl ester]	>10	500	
CC1(C)C(=O)N(c2ccc(C#N)c(C(F)(F)F)c2)C(=O)N1c1ccc(Cl)c(NC(=O)OCCN)c1 [Example 37, {2-chloro-5-[3-(4-cyano-3-trifluoromethylphenyl)-5,5-dimethyl-2,4-dioxoimidazolidin-1-yl]phenyl}-carbamic acid 2-aminoethyl ester]	>10		700
CN1CCN(CCOC(=O)Nc2cc(N3C(=O)N(c4ccc(C#N)c(C(F)(F)F)c4)C(=O)C3(C)C)ccc2Cl)CC1 [Example 29, {2-chloro-5-[3-(4-cyano-3-trifluoromethylphenyl)-5,5-dimethyl-2,4-dioxoimidazolidin-1-yl]phenyl}-carbamic acid 2-(4-methylpiperazin-1-yl)ethyl ester]	>10		500
CCC(=O)N1CCC(N2C(=O)N(c3ccc(C#N)c(Cl)c3C)C(=O)C2(C)C)CC1 [Example 12, 4-[3-(1-propionylpiperidin-4-yl)-4,4-dimethyl-2,5-dioxoimidazolidin-1-yl]-2-chloro-3-methylbenzonitrile]	>10		700
CC1(C)C(=O)N(c2ccc(C#N)c(C(F)(F)F)c2)C(=S)N1c1ccc2sc(NC(N)=O)nc2c1 [Example 18, {5-[3-(4-cyano-3-trifluoromethylphenyl)-5,5-dimethyl-4-oxo-2-thioxoimidazolidin-1-yl]-benzothiazol-2-yl}urea]	>10	100	
CC1(C)C(=O)N(c2ccc(C#N)c(Cl)c2)C(=S)N1c1ccc2sc(NC(=O)OCCO)nc2c1 [Example 66, {5-[3-(3-chloro-4-cyanophenyl)-5,5-dimethyl-4-oxo-2-thioxoimidazolidin-1-yl]benzothiazol-2-yl}carbamic acid 2-hydroxyethyl ester]	6	100	
COc1cc(N2C(=O)C(C)(C)N(c3ccc4sc(NC(N)=O)nc4c3)C2=S)ccc1C#N [Example 19, {5-[3-(4-cyano-3-methoxyphenyl)-5,5-dimethyl-4-oxo-2-thioxoimidazolidin-1-yl]-benzothiazol-2-yl}urea]	>10		200
CCCS(=O)(=O)N1CCC(N2C(=O)N(c3ccc(C#N)c(Cl)c3C)C(=O)C2(C)C)CC1 [Example 11, 4-[3-(1-propanesulfonylpiperidin-4-yl)-4,4-dimethyl-2,5-dioxoimidazolidin-1-yl]-2-chloro-3-methylbenzonitrile]	>10		300
CN(C)CCOC(=O)Nc1cc(N2C(=O)N(c3ccc(C#N)c(C(F)(F)F)c3)C(=O)C2(C)C)ccc1Cl [Example 28, {2-chloro-5-[3-(4-cyano-3-trifluoromethylphenyl)-5,5-dimethyl-2,4-dioxoimidazolidin-1-yl]phenyl}-carbamic acid 2-dimethylaminoethyl ester]	>10		500
CC1(C)C(=O)N(c2ccc(C#N)c(C(F)(F)F)c2)C(=S)N1c1ccc(S(N)(=O)=O)cc1 [Example 56, 4-[3-(4-cyano-3-trifluoromethylphenyl)-5,5-dimethyl-4-oxo-2-thioxoimidazolidin-1-yl]benzenesulfonamide]	>10		400
CC1(C)C(=O)N(c2ccc(C#N)c(C(F)(F)F)c2)C(=S)N1c1ccc(NC(=O)OCCO)nc1 [Example 60, {5-[3-(4-cyano-3-trifluoromethylphenyl)-5,5-dimethyl-4-oxo-2-thioxoimidazolidin-1-yl]pyridin-2-yl}carbamic acid 2-hydroxyethyl ester]	>10		300
